The source of these data is article PMC5218480 (PLoS ONE, 2017).

The experiment concerns MV-4-11 cells. The experiment can be described thus: Gene expression microarray analysis (Affymetrix PrimeView) and GSEA. In kind it is cell-based, human. More on the design: RFU PODN (11730768_x_at) / Fold change /veh PODN (11730768_x_at) / RFU LINC00158 (11744669_a_at) / Fold change /veh LINC00158 (11744669_a_at) / RFU DUSP10 (11751237_a_at) / Fold change /veh DUSP10 (11751237_a_at) / RFU ID3 (11757404_x_at) / Fold change /veh ID3 (11757404_x_at) / RFU PLEKHG5 (11737974_s_at) / Fold change /veh PLEKHG5 (11737974_s_at) / RFU LRRC4B (11730491_at) / Fold change /veh LRRC4B (11730491_at) / RFU GIMAP4 (11747438_a_at) / Fold change /veh GIMAP4 (11747438_a_at) / RFU KRT8 (11758183_x_at) / Fold change /veh KRT8 (11758183_x_at) / RFU CNN1 (11734310_a_at) / Fold change /veh CNN1 (11734310_a_at) / RFU VPS37D (11726825_at) / Fold change /veh VPS37D (11726825_at) / RFU C10orf10 (11716522_x_at) / Fold change /veh C10orf10 (11716522_x_at) / RFU KIR2DL2 /// KIR2DL4 /// KIR2DL5A /// KIR2DL5B /// KIR2DS1 /// KIR2DS2 /// KIR2DS3 /// KIR2DS4 /// KIR3DL3 /// KIR3DL3 /// KIR3DS1 (11738374_at) / Fold change /veh KIR2DL2 /// KIR2DL4 /// KIR2DL5A /// KIR2DL5B /// KIR2DS1 /// KIR2DS2 /// KIR2DS3 /// KIR2DS4 /// KIR3DL3 /// KIR3DL3 /// KIR3DS1 (11738374_at) / RFU C1QL1 (11718748_at) / Fold change /veh C1QL1 (11718748_at) / RFU TMPRSS4 (11747572_a_at) / Fold change /veh TMPRSS4 (11747572_a_at) / RFU HAMP (11756126_x_at) / Fold change /veh HAMP (11756126_x_at) / RFU RNFT2 (11725882_a_at) / Fold change /veh RNFT2 (11725882_a_at) / RFU NR4A2 (11747474_a_at) / Fold change /veh NR4A2 (11747474_a_at) / RFU ABCC12 (11746883_a_at) / Fold change /veh ABCC12 (11746883_a_at) / RFU TMEM136 (11760407_x_at) / Fold change /veh TMEM136 (11760407_x_at) / RFU CLDN22 /// WWC2 (11732394_at) / Fold change /veh CLDN22 /// WWC2 (11732394_at) / RFU HLA-DPB1 (11760878_x_at) / Fold change /veh HLA-DPB1 (11760878_x_at) / RFU SPINT1 (11716480_a_at) / Fold change /veh SPINT1 (11716480_a_at) / RFU GAP43 (11754022_s_at) / Fold change /veh GAP43 (11754022_s_at) / RFU A4GNT (11735810_at) / Fold change /veh A4GNT (11735810_at) / RFU PRB3 (11715151_x_at) / Fold change /veh PRB3 (11715151_x_at) / RFU TUBB4B (11761932_at) / Fold change /veh TUBB4B (11761932_at) / RFU CAPN14 (11732068_a_at) / Fold change /veh CAPN14 (11732068_a_at) / RFU TMCC2 (11721928_a_at) / Fold change /veh TMCC2 (11721928_a_at) / RFU IRGQ (11745062_a_at) / Fold change /veh IRGQ (11745062_a_at) / RFU FAM174B (11720279_a_at) / Fold change /veh FAM174B (11720279_a_at) / RFU TMPRSS4 (11748680_a_at) / Fold change /veh TMPRSS4 (11748680_a_at) / RFU FAM212B (11763350_a_at) / Fold change /veh FAM212B (11763350_a_at) / RFU PLEKHG5 (11743358_a_at) / Fold change /veh PLEKHG5 (11743358_a_at) / RFU ZSCAN30 (11745921_a_at) / Fold change /veh ZSCAN30 (11745921_a_at) / RFU CMKLR1 (11741424_a_at) / Fold change /veh CMKLR1 (11741424_a_at) / RFU LOC101060620 /// MAPK8IP1 (11723275_at) / Fold change /veh LOC101060620 /// MAPK8IP1 (11723275_at) / RFU SPTSSB (11747773_x_at) / Fold change /veh SPTSSB (11747773_x_at) / RFU PRSS12 (11739890_at) / Fold change /veh PRSS12 (11739890_at) / RFU BIN1 (11741810_x_at) / Fold change /veh BIN1 (11741810_x_at) / RFU WNT11 (11732464_a_at) / Fold change /veh WNT11 (11732464_a_at) / RFU C10orf10 (11716521_a_at) / Fold change /veh C10orf10 (11716521_a_at) / RFU C5orf56 (11738089_at) / Fold change /veh C5orf56 (11738089_at) / RFU CYB561 (11721691_x_at) / Fold change /veh CYB561 (11721691_x_at) / RFU ANKRD19P (11752326_a_at) / Fold change /veh ANKRD19P (11752326_a_at) / RFU OR2T12 /// OR2T33 /// OR2T8 (11738714_s_at) / Fold change /veh OR2T12 /// OR2T33 /// OR2T8 (11738714_s_at) / RFU VCAN (11748164_a_at) / Fold change /veh VCAN (11748164_a_at) / RFU JSRP1 (11732532_at) / Fold change /veh JSRP1 (11732532_at) / RFU KRTAP10-11 (11738290_x_at) / Fold change /veh KRTAP10-11 (11738290_x_at) / RFU MYO3A (11730013_a_at) / Fold change /veh MYO3A (11730013_a_at) / RFU EBF3 (11725865_a_at) / Fold change /veh EBF3 (11725865_a_at) / RFU CAMK2N1 (11719241_x_at) / Fold change /veh CAMK2N1 (11719241_x_at) / RFU C5orf56 (11738088_a_at) / Fold change /veh C5orf56 (11738088_a_at) / RFU OLFML3 (11715873_a_at) / Fold change /veh OLFML3 (11715873_a_at) / RFU LOC100653217 /// NTM (11731650_a_at) / Fold change /veh LOC100653217 /// NTM (11731650_a_at) / RFU MAPK11 (11762145_a_at) / Fold change /veh MAPK11 (11762145_a_at) / RFU FIZ1 (11724087_x_at) / Fold change /veh FIZ1 (11724087_x_at) / RFU OASL (11726364_x_at) / Fold change /veh OASL (11726364_x_at) / RFU SOX15 (11748057_x_at) / Fold change /veh SOX15 (11748057_x_at) / RFU CD79A (11719716_a_at) / Fold change /veh CD79A (11719716_a_at) / RFU HIST1H1D (11736915_at) / Fold change /veh HIST1H1D (11736915_at) / RFU CASKIN2 (11723855_a_at) / Fold change /veh CASKIN2 (11723855_a_at) / RFU LOC730098 (11760151_x_at) / Fold change /veh LOC730098 (11760151_x_at) / RFU OR4N2 (11742367_at) / Fold change /veh OR4N2 (11742367_at) / RFU PRRT2 (11749266_a_at) / Fold change /veh PRRT2 (11749266_a_at) / RFU SNX32 (11753110_a_at) / Fold change /veh SNX32 (11753110_a_at) / RFU CDHR5 (11726645_a_at) / Fold change /veh CDHR5 (11726645_a_at) / RFU RCAN1 (11760418_a_at) / Fold change /veh RCAN1 (11760418_a_at) / RFU FAM167A (11723789_a_at) / Fold change /veh FAM167A (11723789_a_at) / RFU FAM26E (11764081_at) / Fold change /veh FAM26E (11764081_at) / RFU ISYNA1 (11749810_s_at) / Fold change /veh ISYNA1 (11749810_s_at) / RFU ACY1 (11761880_at) / Fold change /veh ACY1 (11761880_at) / RFU 11764098_at / Fold change /veh 11764098_at / RFU SAMD14 (11745864_x_at) / Fold change /veh SAMD14 (11745864_x_at) / RFU NPB (11741838_a_at) / Fold change /veh NPB (11741838_a_at) / RFU TMPRSS6 (11731388_a_at) / Fold change /veh TMPRSS6 (11731388_a_at) / RFU KRTAP10-2 (11738614_at) / Fold change /veh KRTAP10-2 (11738614_at) / RFU ARHGAP8 /// PRR5-ARHGAP8 (11727945_x_at) / Fold change /veh ARHGAP8 /// PRR5-ARHGAP8 (11727945_x_at) / RFU KRTAP5-7 /// NADSYN1 (11734609_at) / Fold change /veh KRTAP5-7 /// NADSYN1 (11734609_at) / RFU RASL12 (11751679_a_at) / Fold change /veh RASL12 (11751679_a_at) / RFU CDKN2B (11736163_a_at) / Fold change /veh CDKN2B (11736163_a_at) / RFU PRF1 (11729649_at) / Fold change /veh PRF1 (11729649_at) / RFU, ZNF638 /// ZNF638-IT1 / Fold change vs veh, ZNF638 /// ZNF638-IT1 / RFU, PANK3 / Fold change vs veh, PANK3 / RFU, SH3YL1 / Fold change vs veh, SH3YL1 / RFU, ZEB2 / Fold change vs veh, ZEB2 / RFU, NRIP1 / Fold change vs veh, NRIP1 / RFU, PTTG1IP / Fold change vs veh, PTTG1IP / RFU, CAPN2 / Fold change vs veh, CAPN2 / RFU, MED14 / Fold change vs veh, MED14 / RFU, SNORA58 / Fold change vs veh, SNORA58 / RFU, C1orf63 / Fold change vs veh, C1orf63 / RFU, LRRFIP1 / Fold change vs veh, LRRFIP1 / RFU, NDUFAF7 / Fold change vs veh, NDUFAF7 / RFU, SLC12A2 / Fold change vs veh, SLC12A2 / RFU, IBTK / Fold change vs veh, IBTK / RFU, ESF1 / Fold change vs veh, ESF1 / Fold change vs veh, TMEM50B / RFU, TAOK1 / Fold change vs veh, TAOK1 / RFU, ACBD3 / Fold change vs veh, ACBD3 / RFU, TMA16 / Fold change vs veh, TMA16 / RFU, RWDD3 / Fold change vs veh, RWDD3 / RFU, BCAT1 / Fold change vs veh, BCAT1 / RFU, EDEM3 / Fold change vs veh, EDEM3 / RFU, TMEM33 / Fold change vs veh, TMEM33 / RFU, WDR75 / Fold change vs veh, WDR75 / RFU, AHCTF1 / Fold change vs veh, AHCTF1 / RFU, TFRC / Fold change vs veh, TFRC / RFU, ZDHHC17 / Fold change vs veh, ZDHHC17 / RFU, NOM1 / Fold change vs veh, NOM1 / RFU, ARL8B / Fold change vs veh, ARL8B / RFU, ZBTB11 / Fold change vs veh, ZBTB11 / RFU, TAMM41 / Fold change vs veh, TAMM41 / RFU, KIAA1704 /// LOC100996395 / Fold change vs veh, KIAA1704 /// LOC100996395 / RFU, ING1 / Fold change vs veh, ING1 / RFU, TRMT61B / Fold change vs veh, TRMT61B / RFU, FUBP3 / Fold change vs veh, FUBP3 / RFU, TP53 / Fold change vs veh, TP53 / RFU, TNKS2 / Fold change vs veh, TNKS2 / RFU, ZFP14 / Fold change vs veh, ZFP14 / RFU, ACTR2 / Fold change vs veh, ACTR2 / RFU, PPP3R1 / Fold change vs veh, PPP3R1 / RFU, PIK3R1 / Fold change vs veh, PIK3R1 / RFU, HNRNPA1 / Fold change vs veh, HNRNPA1 / RFU, RNF170 / Fold change vs veh, RNF170 / RFU, ZNF28 / Fold change vs veh, ZNF28 / RFU, RNGTT / Fold change vs veh, RNGTT / RFU, OGT / Fold change vs veh, OGT / RFU, BRD1 / Fold change vs veh, BRD1 / RFU, MARS / Fold change vs veh, MARS / RFU, ZNF655 / Fold change vs veh, ZNF655 / RFU, FAHD1 / Fold change vs veh, FAHD1 / RFU, BDP1 / Fold change vs veh, BDP1 / RFU, LRRCC1 / Fold change vs veh, LRRCC1 / RFU, ARID1A / Fold change vs veh, ARID1A / RFU, ZNF146 / Fold change vs veh, ZNF146 / RFU, ZNF330 / Fold change vs veh, ZNF330 / RFU, GPN3 / Fold change vs veh, GPN3 / RFU, C9orf123 / Fold change vs veh, C9orf123 / RFU, N4BP2L2 / Fold change vs veh, N4BP2L2 / RFU, ARFIP1 / Fold change vs veh, ARFIP1 / RFU, FAM179B / Fold change vs veh, FAM179B / RFU, BCL10 / Fold change vs veh, BCL10 / RFU, UHRF1BP1L / Fold change vs veh, UHRF1BP1L / RFU, BET1 / Fold change vs veh, BET1 / RFU, CNOT2 / Fold change vs veh, CNOT2 / RFU, ZNF268 / Fold change vs veh, ZNF268 / Fold change vs veh, ZNF507 / RFU, DGCR2 / Fold change vs veh, DGCR2 / RFU, WDSUB1 / Fold change vs veh, WDSUB1 / Fold change vs veh, HSP90B1 /// MIR3652 / RFU, ADSS / Fold change vs veh, ADSS / RFU, GK / Fold change vs veh, GK / RFU, ZNF148 / Fold change vs veh, ZNF148 / RFU, TAF9 / Fold change vs veh, TAF9 / RFU, SLC1A5 / Fold change vs veh, SLC1A5 / RFU, SLMO2 / Fold change vs veh, SLMO2 / RFU, ABCC4 / Fold change vs veh, ABCC4 / RFU, LOC101060439 /// RAP1B / Fold change vs veh, LOC101060439 /// RAP1B / RFU, RFX7 / Fold change vs veh, RFX7 / RFU, GTPBP10 / Fold change vs veh, GTPBP10 / RFU, CNEP1R1 / Fold change vs veh, CNEP1R1 / RFU, BIVM-ERCC5 /// ERCC5 / Fold change vs veh, BIVM-ERCC5 /// ERCC5 / RFU, ILF3 / Fold change vs veh, ILF3 / RFU 11762660_at / Fold change /veh 11762660_at / RFU VCAN (11757783_s_at) / Fold change /veh VCAN (11757783_s_at) / RFU DDX43 (11728927_at) / Fold change /veh DDX43 (11728927_at) / RFU KRT8 (11758188_x_at) / Fold change /veh KRT8 (11758188_x_at) / RFU NKD1 (11759106_at) / Fold change /veh NKD1 (11759106_at) / RFU SRD5A1 (11742802_a_at) / Fold change /veh SRD5A1 (11742802_a_at) / RFU TPSAB1 /// TPSB2 (11721975_s_at) / Fold change /veh TPSAB1 /// TPSB2 (11721975_s_at) / RFU GSTM3 (11746129_a_at) / Fold change /veh GSTM3 (11746129_a_at) / RFU IL23R (11737362_x_at) / Fold change /veh IL23R (11737362_x_at) / RFU TMEM51 (11727254_a_at) / Fold change /veh TMEM51 (11727254_a_at) / RFU PIWIL2 (11732686_x_at) / Fold change /veh PIWIL2 (11732686_x_at) / RFU ORM1 (11744905_x_at) / Fold change /veh ORM1 (11744905_x_at) / RFU CCDC152 (11743942_at) / Fold change /veh CCDC152 (11743942_at) / RFU ECM1 (11717891_a_at) / Fold change /veh ECM1 (11717891_a_at) / RFU IL23R (11748794_a_at) / Fold change /veh IL23R (11748794_a_at) / RFU TNFAIP8L3 (11732012_x_at) / Fold change /veh TNFAIP8L3 (11732012_x_at) / RFU MBOAT4 (11741988_at) / Fold change /veh MBOAT4 (11741988_at) / RFU 11764193_at / Fold change /veh 11764193_at / RFU TMEM53 (11763286_at) / Fold change /veh TMEM53 (11763286_at) / RFU MAGEB2 (11727129_at) / Fold change /veh MAGEB2 (11727129_at) / RFU TMEM200A (11744735_a_at) / Fold change /veh TMEM200A (11744735_a_at) / RFU CCDC152 (11751479_a_at) / Fold change /veh CCDC152 (11751479_a_at) / RFU FAM211A (11726209_a_at) / Fold change /veh FAM211A (11726209_a_at) / RFU RGS16 (11746705_a_at) / Fold change /veh RGS16 (11746705_a_at) / RFU VCAN (11755009_s_at) / Fold change /veh VCAN (11755009_s_at) / RFU RHOB (11743442_s_at) / Fold change /veh RHOB (11743442_s_at) / RFU RGS16 (11720943_a_at) / Fold change /veh RGS16 (11720943_a_at) / RFU RGS16 (11720944_at) / Fold change /veh RGS16 (11720944_at) / RFU, VPS4B / Fold change vs veh, VPS4B / RFU, CREB1 / Fold change vs veh, CREB1 / RFU, DNAJC13 / Fold change vs veh, DNAJC13 / RFU, GNAQ / Fold change vs veh, GNAQ / RFU, CDK5R1 / Fold change vs veh, CDK5R1 / RFU, ZRANB3 / Fold change vs veh, ZRANB3 / RFU, CUL4A / Fold change vs veh, CUL4A / RFU, CCNY / Fold change vs veh, CCNY / RFU, UFL1 / Fold change vs veh, UFL1 / RFU, COG3 / Fold change vs veh, COG3 / RFU, DIAPH2 / Fold change vs veh, DIAPH2 / RFU, SKA2 / Fold change vs veh, SKA2 / RFU, AFF3 / Fold change vs veh, AFF3 / RFU, LMF1 / Fold change vs veh, LMF1 / RFU, IPO11 / Fold change vs veh, IPO11 / RFU, DFFB / Fold change vs veh, DFFB / RFU, FOXP1 / Fold change vs veh, FOXP1 / RFU, CARD8 / Fold change vs veh, CARD8 / RFU, STRN3 / Fold change vs veh, STRN3 / RFU, ADK / Fold change vs veh, ADK / RFU, RASSF2 / Fold change vs veh, RASSF2 / RFU, WIPF1 / Fold change vs veh, WIPF1 / RFU, LARP1B / Fold change vs veh, LARP1B / RFU, RASA1 / Fold change vs veh, RASA1 / RFU, RB1 / Fold change vs veh, RB1 / RFU, PPFIA1 / Fold change vs veh, PPFIA1 / RFU, MAT2A / Fold change vs veh, MAT2A / RFU, CCT5 / Fold change vs veh, CCT5 / RFU, WDR92 / Fold change vs veh, WDR92 / RFU, CUX1 / Fold change vs veh, CUX1 / RFU, TTC7A / Fold change vs veh, TTC7A / RFU, TMEM135 / Fold change vs veh, TMEM135 / RFU, DEPTOR / Fold change vs veh, DEPTOR / RFU, CPM / Fold change vs veh, CPM / RFU, DNAJB6 / Fold change vs veh, DNAJB6 / RFU, CACNA2D3 / Fold change vs veh, CACNA2D3 / RFU, DTX4 / Fold change vs veh, DTX4 / RFU, TFCP2 / Fold change vs veh, TFCP2 / RFU, GMCL1 /// GMCL1P1 / Fold change vs veh, GMCL1 /// GMCL1P1 / RFU, AEBP2 / Fold change vs veh, AEBP2 / RFU, SNHG1 /// SNORD22 /// SNORD25 /// SNORD26 /// SNORD27 /// SNORD28 /// SNORD29 /// SNORD31 / Fold change vs veh, SNHG1 /// SNORD22 /// SNORD25 /// SNORD26 /// SNORD27 /// SNORD28 /// SNORD29 /// SNORD31 / Fold change (Aza/veh), C12orf56 (ProbeSet 11735607_a_at) / Fold change (ACY-1035/veh), C12orf56 (ProbeSet 11735607_a_at) / Fold change (Aza/veh), FGFR1OP (ProbeSet 11751329_s_at) / Fold change (ACY-1035/veh), FGFR1OP (ProbeSet 11751329_s_at) / Fold change (Aza/veh), VPS36 (ProbeSet 11739960_a_at) / Fold change (ACY-1035/veh), VPS36 (ProbeSet 11739960_a_at) / RFU SYPL1 (11715823_x_at) / Fold change /veh SYPL1 (11715823_x_at) / RFU IGFBP7 (11715501_s_at) / Fold change /veh IGFBP7 (11715501_s_at) / RFU REEP3 (11722064_at) / Fold change /veh REEP3 (11722064_at) / RFU IGLL1 (11728026_x_at) / Fold change /veh IGLL1 (11728026_x_at): dose or concentration left out as unconfirmed. The settings on record: MV-4-11 cells, 48 hours.

Molecules are shown by their SMILES.

Turning to `Nc1ncn([C@@H]2O[C@H](CO)[C@@H](O)[C@H]2O)c(=O)n1` [azacitidine], the “RFU PRB3 (11715151_x_at)” value stood at 8.00 RFU.
